Test results taken from patent US4098823A, “Monospiroalkyl derivatives of prostaglandins” (Miles Laboratories, Inc., priority 1977, dated 1978).

What was measured:
[1] = test system: rat colon; assay: Cascade Assay, colon (smooth muscle stimulant effect); assay type: cell-based; details: superfused, 50% of maximum (PGF2α)
Method in brief: (§1)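 Rabbit aortic strip (4 g tension), rat stomach fundus, rat colon and chick rectum (1 g) in cascade, superfused at 10 ml/min with 37° C Krebs containing cholinergic, adrenergic, serotonin and histamine blockers. Doses of 0.001–100,000 ng dripped on at 10–20 min intervals; maximal tension rise gave graphical ED50 per tissue.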

[2] = test system: Gastric Secretion; assay: Effects on Gastric Secretion in the Rat; assay type: in vivo; details: pylorus-ligated rat, subcutaneous, 2 x 1.5 mg/kg (total 3.0 mg/kg), 4 hours
Method in brief: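 Rats (150-200 g, groups of six) fasted 48 h, pylorus ligated under ether. Compounds given s.c. in phosphate buffer pH 7.38 at 1.5 mg/kg immediately post-surgery and 2 h later (total 3.0 mg/kg). At 4 h, gastric volume and total acid (titration with 0.1 N NaOH, mEq) compared with vehicle controls by t-test.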

[3] = test system: Femoral Blood Flow; assay: Effects on Femoral Blood Flow in the Dog; assay type: in vivo; details: anesthetized mongrel dog, intraarterial, 0.001 to 10 mcg
Method: The peripheral vasodilator or constrictor effects of these compounds were determined in mongrel dogs of either sex, weighing between 10 and 20 kg anesthestized intravenously with 35 mg/kg of sodium pentobarbital. An external iliac artery was dissected immediately above the femoral arch for a length of approximately 5 cm and a previously calibrated, non-connulating electromagnetic flowmeter sensor with a lumen between 2.5 and 3.5 mm was placed snugly around the vessel. Cannulas were placed in a branch of the artery arising distally to the location of the flowmeter sensor for intraarterial drug administrations, in the contralateral femoral artery for systemic blood pressure recordings and in the trachea for artificial respiration with room air. Femoral blood flow and systemic blood pressure were continously recorded with an electromagnetic flowmeter and pressure tranducer, respectively.
After an adequate control period, test compounds were injected intraarterially at one log-spaced doses ranging from 0.001 to 10 mcg., in a volume of 0.5 ml and at 5 to 10 minute intervals. Maximum changes in bloodflow, as well as any variations in blood pressure, were tabulated for each dose in absolute values (ml/min. and mmHg). The calculations were made taking as control values those existing immediately before administration of each dose. The direction of the observed change (plus for increase and minus for decrease) was also noted. The dose changing bloodflow by 100 ml/min (ED100 ml/min) was calculated graphically and was used for scoring activity as follows: […]

[4] = test system: rabbit aortic strip; assay: Cascade Assay, aorta (smooth muscle stimulant effect); assay type: cell-based; details: superfused, 50% of maximum (PGA2)
Method in brief: as §1

[5] = test system: Blood Pressure and Heart Rate; assay: Effects on Blood Pressure and Heart Rate in the Anesthetized Cat; assay type: in vivo; details: Felis catus, intravenous, 0.01 to 10.0 mcg/kg, scored only on hypotension, read-out: Test D Activity Value (ED50 mmHg, decrease in blood pressure)
Method in brief: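 Cats of either sex anesthetized with pentobarbital sodium (35 mg/kg i.v.) plus barbital sodium (100 mg/kg i.v.), femoral arterial pressure and ECG-driven heart rate recorded. Compound given i.v. at one-log increasing doses, 0.01–10.0 mcg/kg, every 10 min. ED50 mmHg (dose lowering blood pressure by 50 mmHg) derived graphically from hypotension.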

Q: What does the source list for `COC(=O)CCCCCC[C@H]1C(=O)C[C@@H](O)[C@@H]1/C=C/[C@H](O)C1CC2(CCC2)C1` [TR-4120, Methyl 7-{3R-hydroxy-5-oxo-2R-[3R-hydroxy-3-(spiro[3.3]hept-2-yl)-1E-propenyl]cyclopent-1R-yl}heptanoate]?
A: Test E Cascade Assay, Colon, Activity Value (ED50) [1]: 0 (>10000); Test B Activity Value (% decrease in acidity, inhibition of gastric secretion) [2]: 2 (26-50, significant); Test C Activity Value (ED100 ml/min, increase in femoral blood flow) [3]: 0 (>10.0); Test E Cascade Assay, Aorta, Activity Value (ED50) [4]: 0 (>10000); ED (50 mmHg) [5]: > 0.01 mg/kg
